Measured values reported in patent US20100160255A1, “SPIRO-CYCLIC COMPOUND” (Takeda Pharmaceutical Company Limited, priority 2005, published 2010).
Read-outs that look alike come from different tables or passages of the source.

How the values were obtained:
human ACC1 = biological target: T1, human ACC1 (Homo sapiens, UniProt Q13085); experiment: ACC1 inhibitory activity (malachite green absorbance assay, recombinant enzyme); format: biochemical
T1 construct: made in house; host or cells: SF-9 insect cells, recombinant baculovirus BAC-ACC1

human ACC2 = biological target: T2, human ACC2 (Homo sapiens, UniProt O00763); experiment: ACC2 inhibitory activity (malachite green absorbance assay, recombinant ACC2(Nd)); format: biochemical
T2 construct: made in house; host or cells: SF-9 insect cells, recombinant baculovirus BAC-ACC2(Nd)
Description: The ACC2 inhibitory activity of the compound of the present invention was evaluated by the following method.
Human ACC2 gene was cloned by PCR using human skeletal muscle cDNA library (Clontech) as a template, and Primer 1 and Primer 2 shown below. Primer 1 and Primer 2 were prepared by adding recognition sequence of restriction enzymes SalI and XbaI based on the information of the base sequence (Genbank Accession U89344) of human ACC2 gene.
(§1) PCR was performed using Pyrobest DNA polymerase (TAKARA BIO INC.). The obtained PCR product was cloned to pT7 Blue vector (Novagen) which was, after confirmation of the base sequence, digested with restriction enzymes SalI and XbaI. The obtained DNA fragment was inserted into pFAST-BacHTa (Invitrogen) digested with restriction enzymes SalI and XbaI to give expression plasmid ACC2/pFAST-BacHTa.
A plasmid for expression of ACC2 free of mitochondrial targeting sequence was prepared by PCR using the expression plasmid as a template, and Primer 3 and Primer 4 shown below.
as §1, with “AflII.” for “XbaI.”, “AflII” for “XbaI”, “ACC2mito7/pFAST-BacHTa.” for “ACC2/pFAST-BacHTa.”
Using the expression plasmid and BAC-TO-BAC Baculovirus Expression System (Invitrogen), virus stock BAC-ACC2 of recombinant Baculovirus (N terminal deletion (hereinafter Nd)) was prepared.
SF-9 cells (Invitrogen) were sown at 0.5×10^6 cells/mL to insect cell culture medium (2 L, Sf-900II SFM medium (Invitrogen) containing 10% fetal bovine serum (Trace), 50 mg/L gentamicin (Invitrogen) and 0.1% Pluronic F-68 (Invitrogen)), and shaking culture was performed using a Wave Bioreactor (Wave) under the conditions of 27° C., 20 rpm, rocking angle of 6° and oxygen concentration of 30%.
On day 4 of the culture, 3 L of an insect cell culture medium was added, the rocking angle was set to 8°, and the cells were further cultured. On day 5 of the culture, the recombinant Baculovirus BAC-ACC2(Nd) (100 mL) was added, 5 L of the insect cell culture medium was further added, the rocking angle was set to 11°, and the cells were cultured for 3 days. The culture medium was centrifuged at 1000×g for 10 min to give virus-infected cells. The infected cells were washed with phosphate buffered saline (Invitrogen) and centrifuged under the same conditions, and the obtained cells were cryopreserved at −80° C.
The cryopreserved cells were thawed in ice, suspended in 25 mM HEPES buffer (900 mL, pH 7.5) containing 10% Glycerol, 0.13 M NaCl, 1 mM EDTA, 25 mM sodium β-glycerophosphate, 1 mM sodium orthovanadate, added with Complete Protease Inhibitor (Boehringer). The obtained suspension was homogenized 3 times with a Polytron homogenizer (Kinematica) at 20,000 rpm for 30 seconds. The obtained cell disrupt solution was clarified by centrifugation at 31000×g for 60 min and filtrated using a 0.45 μm filter. The filtrate was passed through a column packed with Ni-NTA Super Flow Gel (QIAGEN, 60 mL) at a flow rate of about 5 mL/min. The column was washed with buffer A (50 mM HEPES containing 0.3M NaCl, pH 7.5), further washed with buffer A containing 20 mM Imidazole, and eluted with buffer A containing 100 mM Imidazole. The eluate was concentrated with Vivaspin 20 (Vivascience) having a molecular weight cut off of 30 K. The obtained concentrate was dialyzed against 50 mM HEPES (pH7.5) containing 10 mM MgCl2, 2 mM dithiothreitol, 10 mM tripotassium citrate and 0.3M NaCl. The dialysate was filtered through a 0.22 μm filter to give ACC2(Nd). The obtained ACC2(Nd) was cryopreserved at −80° C. […]

[1] = Table 8, recombinant human ACC1, 30° C., absorbance 620 nm, read-out: IC50 (ACC1 inhibitory activity)
[2] = Table 9, recombinant human ACC2(Nd), N terminal deletion, 30° C., absorbance 620 nm, read-out: IC50 (ACC2 inhibitory activity)
[3] = Experimental Example 3, same manner as Experimental Example 1, read-out: IC50 values (ACC1 inhibitory activity)

T2 sequence (O00763 117-2458 limits assumed): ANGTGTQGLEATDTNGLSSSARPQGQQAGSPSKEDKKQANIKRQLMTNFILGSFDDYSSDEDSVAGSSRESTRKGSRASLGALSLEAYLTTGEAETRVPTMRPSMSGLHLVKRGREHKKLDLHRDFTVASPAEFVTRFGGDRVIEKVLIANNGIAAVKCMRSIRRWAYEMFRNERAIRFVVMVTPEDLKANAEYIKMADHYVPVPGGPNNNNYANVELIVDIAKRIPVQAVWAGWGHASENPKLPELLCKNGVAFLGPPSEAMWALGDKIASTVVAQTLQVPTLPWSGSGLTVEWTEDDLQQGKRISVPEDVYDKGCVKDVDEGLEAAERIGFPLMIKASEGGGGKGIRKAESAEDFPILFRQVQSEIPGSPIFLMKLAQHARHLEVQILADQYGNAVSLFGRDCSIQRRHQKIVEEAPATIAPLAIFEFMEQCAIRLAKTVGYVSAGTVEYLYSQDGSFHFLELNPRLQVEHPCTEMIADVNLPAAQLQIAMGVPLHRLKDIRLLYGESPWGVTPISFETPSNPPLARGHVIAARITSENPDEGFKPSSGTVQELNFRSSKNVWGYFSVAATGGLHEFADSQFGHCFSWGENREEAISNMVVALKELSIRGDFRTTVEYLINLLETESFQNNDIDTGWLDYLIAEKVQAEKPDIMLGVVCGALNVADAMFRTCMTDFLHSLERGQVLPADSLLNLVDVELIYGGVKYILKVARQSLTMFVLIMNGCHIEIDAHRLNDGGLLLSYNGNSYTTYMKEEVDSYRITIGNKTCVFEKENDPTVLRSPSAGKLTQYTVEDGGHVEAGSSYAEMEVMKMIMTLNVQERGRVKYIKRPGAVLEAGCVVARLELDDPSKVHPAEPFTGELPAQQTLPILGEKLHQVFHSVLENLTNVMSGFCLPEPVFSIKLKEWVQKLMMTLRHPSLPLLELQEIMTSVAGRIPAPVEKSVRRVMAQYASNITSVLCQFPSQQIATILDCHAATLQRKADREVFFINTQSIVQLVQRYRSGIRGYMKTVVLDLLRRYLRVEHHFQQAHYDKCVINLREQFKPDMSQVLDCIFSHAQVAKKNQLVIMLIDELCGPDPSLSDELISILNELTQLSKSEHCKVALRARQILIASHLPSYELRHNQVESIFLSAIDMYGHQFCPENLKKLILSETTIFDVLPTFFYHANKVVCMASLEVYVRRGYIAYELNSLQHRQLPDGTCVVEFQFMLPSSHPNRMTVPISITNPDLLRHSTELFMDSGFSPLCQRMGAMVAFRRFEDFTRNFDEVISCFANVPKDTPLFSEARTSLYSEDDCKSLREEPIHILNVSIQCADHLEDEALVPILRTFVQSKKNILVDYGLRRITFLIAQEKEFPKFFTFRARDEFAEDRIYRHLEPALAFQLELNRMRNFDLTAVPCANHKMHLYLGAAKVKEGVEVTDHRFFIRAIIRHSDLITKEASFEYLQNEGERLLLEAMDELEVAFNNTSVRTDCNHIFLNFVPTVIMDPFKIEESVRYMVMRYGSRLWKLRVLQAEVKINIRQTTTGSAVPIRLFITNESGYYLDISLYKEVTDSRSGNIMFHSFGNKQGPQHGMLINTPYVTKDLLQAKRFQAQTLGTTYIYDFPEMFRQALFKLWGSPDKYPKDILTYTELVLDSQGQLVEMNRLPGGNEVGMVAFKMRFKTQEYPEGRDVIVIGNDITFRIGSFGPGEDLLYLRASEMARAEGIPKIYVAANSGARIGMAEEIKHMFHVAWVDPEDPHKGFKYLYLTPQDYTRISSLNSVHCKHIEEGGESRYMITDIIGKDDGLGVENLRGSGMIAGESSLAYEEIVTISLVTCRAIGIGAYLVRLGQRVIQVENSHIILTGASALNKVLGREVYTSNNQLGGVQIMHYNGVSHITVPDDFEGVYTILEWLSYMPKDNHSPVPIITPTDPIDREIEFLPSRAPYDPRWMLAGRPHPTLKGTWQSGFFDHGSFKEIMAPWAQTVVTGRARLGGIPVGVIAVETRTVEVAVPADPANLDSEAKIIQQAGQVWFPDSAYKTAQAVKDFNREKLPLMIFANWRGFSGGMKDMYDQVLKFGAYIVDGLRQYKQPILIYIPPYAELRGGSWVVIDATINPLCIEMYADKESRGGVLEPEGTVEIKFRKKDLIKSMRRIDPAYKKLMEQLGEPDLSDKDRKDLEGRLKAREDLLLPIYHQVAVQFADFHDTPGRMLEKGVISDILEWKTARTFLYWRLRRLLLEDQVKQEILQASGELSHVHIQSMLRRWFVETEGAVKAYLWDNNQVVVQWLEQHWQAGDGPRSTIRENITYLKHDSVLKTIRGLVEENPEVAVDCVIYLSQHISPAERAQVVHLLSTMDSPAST

IC50 (human ACC1; [1]) [nM]	IC50 (human ACC2; [2]) [nM]	IC50 (human ACC1; [3]) [nM]	IC50 (human ACC2; Experimental Example 4, same manner as Experimental Example 2, read-out: IC50 values (ACC2 inhibitory activity)) [nM]	SMILES
220	39	–	–	CC(C)NC(=O)Nc1sc2ccccc2c1C(=O)N1CCC(N2CCCC3(CC(=O)NC3=O)C2)CC1 (stereo not shown) [Example 397, N-(3-{[4-(1,3-dioxo-2,7-diazaspiro[4.5]dec-7-yl)piperidin-1-yl]carbonyl}-1-benzothien-2-yl)-N′-isopropylurea]
97	13	≤ 100	–	CCNC(=O)Nc1sc2ccccc2c1C(=O)N1CCC(N2CCCC3(CCN(CC)C3=O)C2)CC1 (stereo not shown) [Example 400, N-ethyl-N′-(3-{[4-(2-ethyl-1-oxo-2,7-diazaspiro[4.5]dec-7-yl)piperidin-1-yl]carbonyl}-1-benzothien-2-yl)urea]
73	15	≤ 100	–	CCNC(=O)Nc1sc2ccccc2c1C(=O)N1CCC(N2CCCC3(C2)N=C(C)N(CC)C3=O)CC1 (stereo not shown) [Example 401, 1-ethyl-3-(3-{[4-(3-ethyl-2-methyl-4-oxo-1,3,7-triazaspiro[4.5]dec-1-en-7-yl)piperidin-1-yl]carbonyl}-1-benzothien-2-yl)urea]
–	–	≤ 100	≤ 10	CCNC(=O)Nc1sc2c(c1C(=O)N1CCC(N3CCCC4(C3)OC(=O)N(C(C)(C)C)C4=O)CC1)CCCC2=O (stereo not shown) [Example 420, N-(3-{[4-(3-tert-butyl-2,4-dioxo-1-oxa-3,7-diazaspiro[4.5]dec-7-yl)piperidin-1-yl]carbonyl}-7-oxo-4,5,6,7-tetrahydro-1-benzothien-2-yl)-N′-ethylurea]
